Assay results from US20260199214A1, “Personal Care Compositions And Methods For The Same” (Colgate-Palmolive Company, priority 2019, published 2026).

Tested on: neonatal human epidermal keratinocytes (HEKn)
Test: Intracellular ROS by fluorescence microscopy in keratinocytes exposed to urban dust, with niacinamide and/or FSO (Example 2)
Assay type: cell-based
Conditions: HEKn cells, 200 μg/mL UD, about one hour exposure; niacinamide/FSO concentration per sample
Description: An in vitro study was conducted to analyze the skin protecting benefits of varying concentrations of niacinamide and/or FSO. Particularly, an in vitro study was conducted to analyze the efficacy of varying concentrations of niacinamide and/or FSO in reducing and/or preventing ROS in and on the skin.
To conduct the study, neonatal human epidermal keratinocytes (HEKn) were grown in standard well plates having glass bottoms coated with collagen I. The HEKn were cultured in EpiLife™ media supplemented with human keratinocyte growth supplements (HKGS), both of which are commercially available from ThermoFisher Scientific of Waltham, MA. Stock solutions of FSO, niacinamide, and urban dust (UD) were prepared for the treatment of the keratinocytes. It should be appreciated that the UD is representative of particulate matter (PM) pollution.
The presence or amount of intracellular reactive oxygen species (ROS) was measured using fluorescence microscopy. […] After exposure to the oxidative stress detection reagent and the FSO, niacinamide, and/or UD, the keratinocytes were washed twice with a wash buffer and imaged via fluorescence in the wash buffer. Live adherent cells were imaged using GFP excitation/emission filters, and the ROS levels were quantified from raw images using ImageJ software.

| Compound | ROS Levels (%) Relative to UD Alone |
| --- | --- |
| NC(=O)c1cccnc1 [Sample 14, niacinamide] | −3.89% |
| NC(=O)c1cccnc1 [Sample 13, niacinamide] | −10.79% |
